{"source": "paper PMC4306142", "about": "“Structure of mycobacterial maltokinase, the missing link in the essential GlgE-pathway” (Scientific Reports, 2015)", "key": {"[1]": {"tested_on": "Nc1nc2c(ncn2[C@@H]2O[C@H](COP(=O)(O)OP(=O)(O)OP(=O)(O)O)[C@@H](O)[C@H]2O)c(=O)[nH]1", "assay": "purified protein", "type": "biochemical, Mycolicibacterium austroafricanum", "settings": "pH 7.5; 30.0 °C"}, "[2]": {"target": "T1, Mak^Mvan (Mycolicibacterium austroafricanum, UniProt A1TH50)", "T1 sequence (A1TH50 whole entry)": "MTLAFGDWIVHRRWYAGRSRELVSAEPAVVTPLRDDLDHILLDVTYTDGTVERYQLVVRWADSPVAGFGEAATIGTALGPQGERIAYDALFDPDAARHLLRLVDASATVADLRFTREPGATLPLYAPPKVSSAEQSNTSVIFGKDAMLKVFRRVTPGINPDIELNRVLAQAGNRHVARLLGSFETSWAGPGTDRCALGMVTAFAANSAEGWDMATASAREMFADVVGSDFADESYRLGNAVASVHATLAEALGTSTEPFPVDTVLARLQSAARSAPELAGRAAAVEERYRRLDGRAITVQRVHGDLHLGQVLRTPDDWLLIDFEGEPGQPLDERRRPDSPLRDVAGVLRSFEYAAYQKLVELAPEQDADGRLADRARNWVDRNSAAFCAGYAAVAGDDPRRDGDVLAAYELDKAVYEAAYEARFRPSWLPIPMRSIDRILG"}, "[3]": {"target": "T1, Mak^Mvan", "assay": "X-ray crystal structure, […] Å", "type": "binding", "set-up": "full length (model Thr2-Gly441), C-terminal linker and His-tag kept, 454 residues in all; pET30a, NdeI/HindIII, E. coli; monomer", "settings": "co-crystallised with 4 mM AppCp, two Mg2+; nucleotide site, two conformations"}}, "data": [{"molecule": "(Mycolicibacterium vanbaalenii PYR-1)", "values": [{"measurement": "Km", "setting": "[1]", "value": "5.8 ± 1.4", "unit": "mM"}]}, {"molecule": "Nc1ncnc2c1ncn2[C@@H]1O[C@H](COP(=O)(O)OP(=O)(O)OP(=O)(O)O)[C@@H](O)[C@H]1O", "note": "[ATP]", "values": [{"measurement": "X-ray crystal structure, 1.71 Å", "setting": "[2]", "value": "4WZY (Mak^Mvan:ATP complex)"}]}, {"molecule": "Nc1ncnc2c1ncn2[C@@H]1O[C@H](COP(=O)(O)OP(=O)(O)CP(=O)(O)O)[C@@H](O)[C@H]1O", "note": "[AppCp, adenosine-5′-[(β,γ)-methyleno] triphosphate]", "values": [{"measurement": "X-ray crystal structure, 1.15 Å", "setting": "[3]", "value": "structure of Mak^Mvan in complex with the non-hydrolysable ATP analog"}]}]}
